One block for each molecule: values may come before it.
What was measured:
EBF2 = test: Peptide pull-down with SW1990 and PANC-1 protein extracts; type: binding, Human; conditions: biotin-labeled peptides, protein extracts from SW1990 and PANC-1 cells; in vitro; Figure 1B
Protocol: Unmodified histone 3 (H3), H3K4me1 peptides were incubated with nuclear extract of SW1990 cells, separated by SDS‐PAGE gel, and subjected to mass spectrometry. Factors specifically associating with H3K4me1 were screened by peptide pulldown coupled with mass spectrometry analysis. Mass spectrometry‐based proteomic analysis yielded a plethora of putative H3K4me1‐associated proteins, including many known histone or DNA modifiers, readers, and chromatin remodelers (Table S1, Supporting Information). Given that KMT2D executes its antitumor function via catalyzing the formation of H3K4me1 in pancreatic cancer, we explored the genes associated with H3K4me1.
The product was separated by sodium dodecyl sulfate‐polyacrylamide gel electrophoresis (SDS‐PAGE) with silver staining. Protein bands of interest were excised and subjected to electrospray‐ion trap tandem mass spectrometry (LCQ‐Deca, Finnigan).

His‐EBF2 = target: T1, His‐EBF2 (Homo sapiens, UniProt Q9HAK2); test: Peptide pull-down with purified His-EBF2 fusion protein; type: binding; conditions: purified His-EBF2 expressed in E. coli; Figure 1C
T1 construct: His‐EBF2 plasmid was constructed by inserting the CDS of EBF2 into PET‐28a vector; His; made in house; host or cells: E. coli BL21 (DE3)
T1 sequence (Q9HAK2 1-575): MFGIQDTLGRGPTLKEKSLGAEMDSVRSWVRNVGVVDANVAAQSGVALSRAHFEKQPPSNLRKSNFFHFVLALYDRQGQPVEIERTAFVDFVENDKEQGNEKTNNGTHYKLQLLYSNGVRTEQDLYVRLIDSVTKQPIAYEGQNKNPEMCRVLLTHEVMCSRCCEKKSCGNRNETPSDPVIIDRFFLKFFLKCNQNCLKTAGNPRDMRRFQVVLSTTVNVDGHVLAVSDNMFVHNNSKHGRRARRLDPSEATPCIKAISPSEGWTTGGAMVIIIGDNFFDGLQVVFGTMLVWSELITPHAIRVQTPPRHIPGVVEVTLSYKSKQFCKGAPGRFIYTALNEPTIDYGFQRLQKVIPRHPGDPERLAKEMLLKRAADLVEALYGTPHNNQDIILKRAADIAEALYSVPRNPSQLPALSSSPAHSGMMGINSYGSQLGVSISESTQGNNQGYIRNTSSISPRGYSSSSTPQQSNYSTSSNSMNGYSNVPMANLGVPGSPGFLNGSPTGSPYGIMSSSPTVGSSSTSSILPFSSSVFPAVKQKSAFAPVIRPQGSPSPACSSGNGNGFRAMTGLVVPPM
Protocol: The CDS region of EBF2 gene was inserted into pET‐28a plasmid to express recombinant His‐tagged EBF2 fusion protein (His‐EBF2) in E. coli (Figure 1C).
His‐EBF2 plasmid was constructed by inserting the CDS of EBF2 into PET‐28a vector, transformed into E. coli BL21 (DE3), and cultured with isopropyl‐β‐D‐thiogalactoside (IPTG; Beyotime) at 16 °C for 12 h, until the optical density (OD600) reached 0.5–0.6. BL21 cells were collected and sonicated in cold PBS buffer, and His‐fusion proteins were purified with High Affinity Nickel beads (Genscript, Nanjing, China). The purity of His‐fusion proteins was evaluated by SDS‐PAGE.

His‐EBF2 fusion protein = test: Isothermal titration calorimetry (ITC); type: binding; conditions: Figure 1E
Protocol: His‐EBF2 plasmid was constructed by inserting the CDS of EBF2 into PET‐28a vector, transformed into E. coli BL21 (DE3), and cultured with isopropyl‐β‐D‐thiogalactoside (IPTG; Beyotime) at 16 °C for 12 h, […]. BL21 cells were collected and sonicated in cold PBS buffer, and His‐fusion proteins were purified with High Affinity Nickel beads (Genscript, Nanjing, China). The purity of His‐fusion proteins was evaluated by SDS‐PAGE.
A MicroCal ITC‐200 system (Malvern Instruments Ltd., UK) was used for ITC assay. Briefly, the synthesized peptides (Genscript) and proteins were all subjected to extensive dialysis against PBS. Peptides at a concentration of 1 mM were loaded into the ITC syringe, and proteins at a concentration of 100 µM into the ITC cell. Then, every 2 µL of peptide was automatically injected into the cell at 25 °C. The results of binding isotherms were analyzed using the Origin 7.0 software package (Origin Lab).

[1] = target: recombinant His-tagged EBF2 fusion protein (human) (UniProt Q9HAK2); test: MST; NT-647-NHS-labelled EBF2 at 100 nM in PBS with 0.05% Tween-20, pH 7.4; peptides 10 nM to 500 uM; Monolith NT.115
H3K4me1 = test: Co-IP of Flag-tagged EBF2-WT or EBF2-H239A with H3K4me1 in SW1990 cells; type: binding, Human; conditions: Co-IP on SW1990 cells; Figure S1B
Protocol: Co‐immunoprecipitation assay was performed as described previously.^[ [61] ^] Briefly, SW1990 cells were transfected with indicated constructs or treated with GSK‐LSD1, washed with cold phosphate buffered saline (PBS), and lysed with cold cell lysis buffer. Then, the lysates were incubated with appropriate specific antibodies or normal rabbit IgG at 4 °C overnight in constant rotation, followed by the addition of protein A/G Sepharose beads and incubation for 2 h at 4 °C. The beads were then washed five times by the lysis buffer. Bead‐bound proteins were resolved by SDS‐PAGE and detected by immunoblotting using indicated antibodies.

pull-down of purified His-EBF2 by peptide (His‐EBF2): pulled down by H3K4me1 peptide
Molecule: CNCCCC[C@H](NC(=O)[C@@H](NC(=O)[C@H](CCCNC(=N)N)NC(=O)[C@H](C)N)[C@@H](C)O)C(=O)N[C@@H](CCC(N)=O)C(=O)N[C@H](C(=O)N[C@@H](C)C(=O)N[C@@H](CCCNC(=N)N)C(=O)N[C@@H](CCCCN)C(=O)N[C@@H](CO)C(=O)N[C@H](C(=O)NCC(=O)NCC(=O)N[C@@H](CCCCN)C(=O)N[C@@H](C)C(=O)N1CCC[C@H]1C(=O)N[C@@H](CCCNC(=N)N)C(=O)N[C@@H](CCCCN)C(=O)N[C@@H](CCC(N)=O)C(=O)O)[C@@H](C)O)[C@@H](C)O [H3K4me1]
preferential binding of EBF2 to peptide (EBF2): preferential binding of EBF2 to H3K4me1 over H3K4me3 | affinity of His-EBF2 to peptide, in words (His‐EBF2 fusion protein): strong affinity

Kd [1]: 7.37 µM
Molecule: H3K4me1 peptide (C-terminal biotin-tagged 19 amino acid N-terminal peptide of histone H3, mono-methylated on Lys 4) (from UniProt P68431 2-20)

B1: EBF2‐H239A: Flag-tagged EBF2-H239A; H239 is the site for H3K4me1 binding to EBF2 protein (protein)
chain: MFGIQDTLGRGPTLKEKSLGAEMDSVRSWVRNVGVVDANVAAQSGVALSRAHFEKQPPSNLRKSNFFHFVLALYDRQGQPVEIERTAFVDFVENDKEQGNEKTNNGTHYKLQLLYSNGVRTEQDLYVRLIDSVTKQPIAYEGQNKNPEMCRVLLTHEVMCSRCCEKKSCGNRNETPSDPVIIDRFFLKFFLKCNQNCLKTAGNPRDMRRFQVVLSTTVNVDGHVLAVSDNMFVHNNSKAGRRARRLDPSEATPCIKAISPSEGWTTGGAMVIIIGDNFFDGLQVVFGTMLVWSELITPHAIRVQTPPRHIPGVVEVTLSYKSKQFCKGAPGRFIYTALNEPTIDYGFQRLQKVIPRHPGDPERLAKEMLLKRAADLVEALYGTPHNNQDIILKRAADIAEALYSVPRNPSQLPALSSSPAHSGMMGINSYGSQLGVSISESTQGNNQGYIRNTSSISPRGYSSSSTPQQSNYSTSSNSMNGYSNVPMANLGVPGSPGFLNGSPTGSPYGIMSSSPTVGSSSTSSILPFSSSVFPAVKQKSAFAPVIRPQGSPSPACSSGNGNGFRAMTGLVVPPM
ability to bind H3K4me1 compared with EBF2-WT (H3K4me1): significantly weaker than that of EBF2‐WT

Source: publication PMC10787067, “EBF2 Links KMT2D‐Mediated H3K4me1 to Suppress Pancreatic Cancer Progression via Upregulating KLLN” (Advanced Science, 2023)
